According to US8741946B2, “Inhibitors of flaviviridae viruses” (priority 2011, dated 2014):
Like-named read-outs stand apart in the source and are kept apart here.

How the values were obtained:
HCV replicon = HCV replicon assay in Huh-7 cells (luciferase); type: cell-based; conditions: Hepatitis C virus, 72 h; Huh-7 HCV replicon cells, 3 days incubation, luciferase readout; read-out: Wild-type EC50
Description: The anti-HCV activity of the compounds of this invention was tested in a human hepatoma Huh-7 cell line harboring a HCV replicon. The assay comprised the following steps:
Serial dilution was performed in 100% DMSO in a 384-well plate. A solution containing a compound at 225-fold concentration of the starting final serial dilution concentration was prepared in 100% DMSO and 15 μL added to the pre-specified wells in column 3 or 13 of a polypropylene 384-well plate. The rest of the 384-well plate was filled with 10 μL100% DMSO except for columns 23 and 24, where 10 μL of 500 uM a HCV protease inhibitor (ITMN-191) in 100% DMSO was added. The HCV protease inhibitor was used a control of 100% inhibition of HCV replication. The plate was then placed on a Biomek FX Workstation to start the serial dilution. The serial dilution was performed for ten cycles of 3-fold dilution from column 3 to 12 or from column 13 to 22.
To each well of a black polypropylene 384-well plate, 90 μL of cell media containing 1600 suspended Huh-7 HCV replicon cells was added with a Biotek uFlow Workstation. A volume of 0.4 μL of the compound solution was transferred from the serial dilution plate to the cell culture plate on a Biomek FX Workstation. The DMSO concentration in the final assay condition was 0.44%. The plates were incubated for 3 days at 37° C. with 5% CO2 and 85% humidity.
a) Assessment of cytotoxicity: The media in the 384-well cell culture plate was aspirated with a Biotek EL405 plate-washer. A volume of 50 μL of a solution containing 400 nM Calcein AM in 100% PBS was added to each well of the plate with a Biotek uFlow Workstation. The plate was incubated for 30 minutes at room temperature before the fluorescence signal ([…]) was measured with a Perkin Elmer Envision Plate Reader.
b) Assessment of inhibition of viral replication: The calcein-PBS solution in the 384-well cell culture plate was aspirated with a Biotek EL405 plate-washer. A volume of 20 μL of Dual-Glo luciferase buffer (Promega, Dual-Glo Luciferase Assay Reagent, cat. #E298B) was added to each well of the plate with a Biotek uFlow Workstation. The plate was incubated for 10 minutes at room temperature. A volume of 20 μL of a solution containing 1:100 mixture of Dual-Glo Stop & Glo substrate (Promega, Dual-Glo Luciferase Assay Reagent, cat. #E313B) and Dual-Glo Stop & Glo buffer (Promega, Dual-Glo Luciferase Assay Reagent, cat. #E314B) was then added to each well of the plate with a Biotek uFlow Workstation. The plate was incubated at room temperature for 10 minutes before the luminescence signal was measured with a Perkin Elmer Envision Plate Reader.
The percent cytotoxicity was determined by calcein AM conversion to fluorescent product. The average fluorescent signal from the DMSO control wells were defined as 100% nontoxic. The individual fluorescent signal from testing compound treated well was divided by the average signal from DMSO control wells and then multiplied by 100% to get the percent viability. The percent anti-HCV replication activity was determined by the luminescence signal from the testing well compared to DMSO controls wells. The background signal was determined by the average luminescence signal from the HCV protease inhibitor treated wells and was subtracted from the signal from the testing wells as well as the DMSO control wells. Following 3-fold serial dilutions, the EC50 and CC50 values were calculated by fitting % inhibition at each concentration to the following equation: % inhibition=100%/[(EC50/[I])^b+1]
Where b is Hill's coefficient. See, for reference, Hill, A. V., The Possible Effects of the Aggregation of the Molecules of Hemoglobin on its Dissociation Curves, J. Physiol. 40: iv-vii. (1910).
% inhibition values at a specific concentration, for example 2 μM, can also be derived from the formula above.

[1] = test system: genotype 1b (Con-1 strain) HCV replicon, wild-type; test: Transient transfection replicon assay, wild-type PI-hRluc replicon in Huh-lunet cells; type: cell-based, HCV genotype 1b (Con-1 strain); conditions: Hepatitis C virus, 72 h, wild-type genotype 1b PI-hRluc replicon, three days
[2] = test system: genotype 1b (Con-1 strain) HCV replicon with NS5B M423T mutation; test: Transient transfection replicon assay, NS5B M423T mutant PI-hRluc replicon in Huh-lunet cells; type: cell-based, HCV genotype 1b (Con-1 strain); conditions: Hepatitis C virus, 72 h, read-out: Replicon transient transfection EC50 M423T
[3] = target: T1, wild-type NS5B (amino acids 1-570; GT-1b) (Hepatitis C virus genotype 1b, UniProt Q9WMX2); test: Surface Plasmon Resonance binding affinity to wild-type NS5B; design: species or system HCV GT-1b
T1 construct: 21 residue C-terminal truncated forms of the NS5b protein (amino acids 1-570); GT-1b; made in house
Excerpt: (§1) Compounds with minimal fold difference in binding affinity may have particular clinical utility.
(§2) In vitro studies with NS5B employed soluble, 21 residue C-terminal truncated forms of the NS5b protein (amino acids 1-570; GT-1b; wild-type and mutant M423T. See Hung, M., Wang, R., Liu, X.: ‘Preparation of HCV NS3 and NS5B to support small molecule drug discovery’, Current Protocols in Pharmacology, 2011, in press). Surface Plasmon Resonance (SPR) was used to measure the binding affinity of compounds described herein to the protein constructs. Standard amine coupling was employed to link the protein to the surface of a Biacore CM5 sensor chip using 10 mM sodium acetate pH 5.5 buffer to an immobilization level of ˜2500 RU. Experiments were performed using a Biacore T100 system at 25° C. in running buffer (50 mM Hepes pH 7.5, 5 mM MgCl2, […], 1 mM EDTA, 1 mM TCEP, 0.01% P20, 5% DMSO). Compounds were tested in a 3-fold concentration dilution series for 8 concentrations starting at 162 nM, using an association phase of 60 seconds and dissociation phase of 5 minutes at a flow rate of 100 μl min^−1. At the end of each binding cycle, a 3-second injection of a buffer (10 mM disodium tetraborate, 1M NaCl, pH8.5) at 40 μl min^−1 was used as a regeneration step to remove compounds still bound to the NS5B surface. Response data were processed using the following procedure: injections aligned in X and Y directions, double referenced using both a reference surface and buffer injections, and DMSO correction for excluded volume effects. Processed data were analyzed using non-linear least squares analysis with a global fit of a 1:1 binding model with mass transport.

[4] = target: T2, NS5B mutant M423T (amino acids 1-570; GT-1b) (Hepatitis C virus genotype 1b, UniProt Q9WMX2, M2842T); test: Surface Plasmon Resonance binding affinity to M423T NS5B; design: species or system HCV GT-1b
T2 construct: 21 residue C-terminal truncated forms of the NS5b protein (amino acids 1-570); GT-1b; made in house
Excerpt: as §1, §2

[5] = test system: NS5B mutant M423T (amino acids 1-570; GT-1b); test: as above; design: species or system HCV GT-1b; conditions: M423T KD versus wild-type KD
Excerpt: as §1, §2

[6] = SPR, Biacore T100, 25° C., wild-type NS5B, read-out: Wild-type KD

| Structure (SMILES) | EC50 (HCV replicon) [nM] | EC50 [1] [nM] | EC50 [2] [nM] | Kd [3, 6] [nM] | Kd [4] [nM] | Fold difference [5] | Kd [3] [nM] |
| --- | --- | --- | --- | --- | --- | --- | --- |
| CC1=CC[C@H](C(=O)N(c2cc(C#CC(C)(C)C)sc2C(=O)O)C(C)C)CC1 [Example 6, (R)-5-(3,3-Dimethylbut-1-ynyl)-3-(N-isopropyl-4-methylcyclohex-3-enecarboxamido)thiophene-2-carboxylic acid] | 7 | 8 | 40 | 1.3 | 14.3 | 11 | – |
| CC(C)(C)C#Cc1cc(N(C(=O)[C@H]2CC[C@H](C)CC2)[C@H]2CC[C@H](O)CC2)c(C(=O)O)s1 [Comparative example 2, 5-(3,3-Dimethylbut-1-ynyl)-3-((1r,4R)—N-((1r,4R)-4-hydroxycyclohexyl)-4-methylcyclohexanecarboxamido)thiophene-2-carboxylic acid, reference compound] | 6 | 10 | 343 | – | – | – | – |
| CC1=CC[C@@H](C(=O)N(c2cc(C#CC(C)(C)C)sc2C(=O)O)C(C)C)[C@H](C)C1 (single isomer, unassigned) [Example 2] | 5 | – | – | 2.8 | 26.8 | 9.5 | – |
| CC1=CC[C@H](C(=O)N(c2cc(C#CC(C)(C)C)sc2C(=O)O)C(C)C)[C@H](C)C1 (single isomer, unassigned) [Example 1] | 8 | – | – | 1.4 | 7.7 | 5.6 | – |
| CC1=CC[C@H](C(=O)N(c2cc(C#CC(C)(C)C)sc2C(=O)O)[C@H]2CC[C@H](O)CC2)[C@@H](C)C1 [Example 7, 5-(3,3-Dimethylbut-1-ynyl)-3-((1S,6S)—N-((1r,4S)-4-hydroxycyclohexyl)-4,6-dimethylcyclohex-3-enecarboxamido)thiophene-2-carboxylic acid] | < 4.5 | – | – | – | – | – | – |
| CC1=CC[C@@H](C(=O)N(c2cc(C#CC(C)(C)C)sc2C(=O)O)C(C)C)CC1 [Example 5, (S)-5-(3,3-Dimethylbut-1-ynyl)-3-(N-isopropyl-4-methylcyclohex-3-enecarboxamido)thiophene-2-carboxylic acid] | 10 | – | – | – | 13.7 | 9.0 | 1.5 |
| CC(C)N(C(=O)[C@H]1CC[C@H](C)C[C@@H]1C)c1cc(C#CC(C)(C)C)sc1C(=O)O [Comparative example 3, 5-(3,3-Dimethylbut-1-ynyl)-3-((1S,2S,4S)—N-isopropyl-2,4-dimethylcyclohexanecarboxamido)thiophene-2-carboxylic acid, reference compound] | 50 | – | – | – | – | – | – |
| CC1=CC[C@H](C(=O)N(c2cc(C#CC(C)(C)C)sc2C(=O)O)C(C)C)[C@@H](C)C1 [Example 3, 5-(3,3-Dimethylbut-1-ynyl)-3-((1S,6S)—N-isopropyl-4,6-dimethylcyclohex-3-enecarboxamido)thiophene-2-carboxylic acid] | 5 | 5 | 14 | 0.7 | 4.2 | – | – |
| CC(C)N(C(=O)[C@@H]1CC[C@@H](C)C[C@H]1C)c1cc(C#CC(C)(C)C)sc1C(=O)O [Comparative example 4, 5-(3,3-Dimethylbut-1-ynyl)-3-((1R,2R,4R)—N-isopropyl-2,4-dimethylcyclohexanecarboxamido)thiophene-2-carboxylic acid, reference compound] | 8 | – | – | 3.6 | 144 | 40 | – |
| CC1=CC[C@H](C(=O)N(c2cc(C#CC(C)(C)C)sc2C(=O)O)[C@H]2CC[C@H](O)CC2)CC1 [Example 8, 5-(3,3-Dimethylbut-1-ynyl)-3-((R)—N-((1r,4R)-4-hydroxycyclohexyl)-4-methylcyclohex-3-enecarboxamido)thiophene-2-carboxylic acid] | < 2.3 | – | – | – | – | – | – |
| CC(C)N(c1cc(C#CC(C)(C)C)sc1C(=O)O)C(=O)[C@H]1CC[C@H](C)CC1 [Comparative example 1, 5-(3,3-Dimethylbut-1-ynyl)-3-((1r,4r)-N-isopropyl-4-methylcyclohexanecarboxamido)thiophene-2-carboxylic acid, reference compound] | 26 | 26 | 293 | 1.7 | 2.78 | 16 | – |
| CC1=CC[C@@H](C(=O)N(c2cc(C#CC(C)(C)C)sc2C(=O)O)C(C)C)[C@@H](C)C1 [Example 4, 5-(3,3-dimethylbut-1-ynyl)-3-((1R,6S)—N-isopropyl-4,6-dimethylcyclohex-3-enecarboxamido)thiophene-2-carboxylic acid] | 38 | – | – | 6.5 | 18.5 | – | – |
